Data from PMC6982996, “Discovery of [1,2,4]Triazole Derivatives as New Metallo-β-Lactamase Inhibitors” (Molecules, 2019).

Legend:
Type in all cases: biochemical
[1] = biological target: T1, VIM-2 (Escherichia coli, UniProt Q5U7L7); experiment: VIM-2 inhibition assay (FC5 fluorogenic substrate); conditions: for IC50: 10 concentrations in threefold dilution, triplicate, read-out: IC50 against VIM-2; for inhibition at 10 µM / inhibition at 100 µM: mean ± SD (n = 3)
T1 construct: Li's Laboratory, Sichuan University (collaborator, a gift and not a purchase)
Experimental: (§1) All the target compounds were freshly prepared in 100 mM DMSO stock solutions. All the MBL and SBL enzymes used in this study were obtained from our collaborator, Li’s Laboratory in Sichuan University. Each compound was initially evaluated for inhibitory activity to MBL and SBL enzymes at 100 and 10 μM, by preincubation with the appropriate amount of enzymes in the assay buffer for 10 min, followed by adding the substrate FC5 to initiate the reactions, and monitoring the fluorescence at λex of 380 nm and λem of 460 nm. The IC50 values for the compounds (with 10 different concentrations in threefold dilution) were further determined. All determinations were tested in triplicate. The IC50 values were obtained from the plot of activity versus inhibitor concentration by using the GraphPad Prism software.

[2] = test system: VIM-5; experiment: VIM-5 inhibition assay (FC5 fluorogenic substrate); conditions: @ 100 μM; mean ± SD (n = 3)
Experimental: (§2) Then, we tested all the target compounds against other B1 MBL enzymes, including NDM-1, IMP-1, VIM-1, and VIM-5 (Table 1); all the assay conditions (including enzyme/substrate concentrations) are the same as that previously used. […]. […].
as §1

[3] = biological target: T2, VIM-1 (Pseudomonas aeruginosa, UniProt A0A0F7KYQ8); experiment: VIM-1 inhibition assay (FC5 fluorogenic substrate); conditions: for inhibition at 100 µM: mean ± SD (n = 3)
T2 construct: Li's Laboratory, Sichuan University (collaborator, a gift and not a purchase)
Experimental: as §2, §1

[4] = biological target: T3, NDM-1 (Klebsiella pneumoniae, UniProt C7C422); experiment: NDM-1 inhibition assay (FC5 fluorogenic substrate); conditions: mean ± SD (n = 3)
T3 construct: Li's Laboratory, Sichuan University (collaborator, a gift and not a purchase)
T3 sequence (C7C422 29-270, looked up, species assumed): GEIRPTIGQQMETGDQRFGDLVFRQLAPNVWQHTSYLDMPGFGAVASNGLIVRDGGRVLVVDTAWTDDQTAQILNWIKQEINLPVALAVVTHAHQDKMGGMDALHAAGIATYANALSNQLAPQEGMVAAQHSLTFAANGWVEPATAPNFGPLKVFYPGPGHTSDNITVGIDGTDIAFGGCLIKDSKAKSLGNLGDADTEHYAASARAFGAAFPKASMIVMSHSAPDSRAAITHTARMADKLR
Experimental: as §2, §1

[5] = biological target: T4, IMP-1 (Serratia marcescens, UniProt P52699); experiment: IMP-1 inhibition assay (FC5 fluorogenic substrate); conditions: for inhibition at 10 µM / inhibition at 100 µM: mean ± SD (n = 3)
T4 construct: Li's Laboratory, Sichuan University (collaborator, a gift and not a purchase)
T4 sequence (P52699 19-246 limits assumed): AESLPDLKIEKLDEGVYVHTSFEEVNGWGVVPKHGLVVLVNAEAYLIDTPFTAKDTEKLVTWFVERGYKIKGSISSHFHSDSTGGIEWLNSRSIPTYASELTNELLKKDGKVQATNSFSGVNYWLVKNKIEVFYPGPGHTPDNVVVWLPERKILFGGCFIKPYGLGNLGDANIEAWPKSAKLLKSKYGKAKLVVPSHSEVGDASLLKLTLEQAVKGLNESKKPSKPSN
Experimental: as §2, §1

Row | IC50 [1] [µM] | inhibition at 10 µM [1] [%] | inhibition at 100 µM [1] [%] | inhibition at 100 µM [3] [%] | inhibition at 10 µM [4] [%] | inhibition at 100 µM [4] [%] | inhibition at 10 µM [5] [%] | inhibition at 100 µM [5] [%] | IC50 ([3]; 10 concentrations in threefold dilution, triplicate, read-out: IC50 against VIM-1) [µM] | IC50 ([5]; 10 concentrations in threefold dilution, triplicate, read-out: IC50 against IMP-1) [µM] | SMILES | Inhibition % VIM-5 [2]
1 | ~179 | 17 | ~50 | 29 ± 2 | 3 | 29 ± 1 | – | – | – | – | c1ccc(-c2nnc3n2CCCS3)cc1 [5a, 3-Phenyl-6,7-dihydro-5H-[1,2,4]triazolo[3,4-b][1,3]thiazine] | 1 ± 1/– %
2 | – | 34 | 45 ± 5 | 21 ± 3 | 27 | 32 ± 4 | 21 | 25 ± 1 | – | – | Cc1ccccc1-c1nnc2n1CCCS2 [5b, 3-(O-Tolyl)-6,7-dihydro-5H-[1,2,4]triazolo[3,4-b][1,3]thiazine] | 12 ± 2/– %
3 | – | 26 | 43 ± 5 | 19 ± 2 | 17 | 8 ± 1 | 16 | 15 ± 1 | – | – | Brc1ccccc1-c1nnc2n1CCCS2 [5c, 3-(2-Bromophenyl)-6,7-dihydro-5H-[1,2,4]triazolo[3,4-b][1,3]thiazine] | 13 ± 2/– %
4 | – | 16 | 39 ± 3 | 27 ± 2 | 6 | 15 ± 1 | – | – | – | – | COc1ccccc1-c1nnc2n1CCCS2 [5d, 3-(2-Methoxyphenyl)-6,7-dihydro-5H-[1,2,4]triazolo[3,4-b][1,3]thiazine] | 7 ± 1/– %
5 | – | 15 | 34 ± 3 | 22 ± 3 | 20 | 10 ± 2 | 4 | 8 ± 1 | – | – | Fc1cccc(-c2nnc3n2CCCS3)c1 [5e, 3-(3-Fluorophenyl)-6,7-dihydro-5H-[1,2,4]triazolo[3,4-b][1,3]thiazine] | 6 ± 1/– %
6 | – | 16 | 42 ± 2 | 32 ± 1 | 22 | 17 ± 1 | – | – | – | – | Clc1cccc(-c2nnc3n2CCCS3)c1 [5f, 3-(3-Chlorophenyl)-6,7-dihydro-5H-[1,2,4]triazolo[3,4-b][1,3]thiazine] | −9 ± 2/– %
7 | – | 7 | 33 ± 2 | 27 ± 3 | 10 | 9 ± 1 | – | – | – | – | Ic1cccc(-c2nnc3n2CCCS3)c1 [5h, 3-(3-Iodophenyl)-6,7-dihydro-5H-[1,2,4]triazolo[3,4-b][1,3]thiazine] | −5 ± 2/– %
8 | > 100 | 35 | 52 ± 4 | 29 ± 3 | 9 | 26 ± 1 | 11 | 12 ± 1 | – | – | FC(F)(F)c1cccc(-c2nnc3n2CCCS3)c1 [5i, 3-(3-(Trifluoromethyl)phenyl)-6,7-dihydro-5H-[1,2,4]triazolo[3,4-b][1,3]thiazine] | 21 ± 2/– %
9 | – | 32 | 34 ± 3 | 27 ± 1 | 23 ± 2 | 23 ± 2 | 13 | 8 ± 1 | – | – | Fc1ccc(-c2nnc3n2CCCS3)cc1 [5j, 3-(4-Fluorophenyl)-6,7-dihydro-5H-[1,2,4]triazolo[3,4-b][1,3]thiazine] | 14 ± 1/– %
10 | 47.2 | 58 | 84 ± 6 | 28 ± 2 | 17 | 14 ± 1 | 5 | 7 ± 1 | – | – | Clc1ccc(-c2nnc3n2CCCS3)cc1 [5k, 3-(4-Chlorophenyl)-6,7-dihydro-5H-[1,2,4]triazolo[3,4-b][1,3]thiazine] | 12 ± 1/– %
11 | > 100 | 44 | 78 ± 5 | 34 ± 1 | 4 | 1 ± 1 | – | – | – | – | Ic1ccc(-c2nnc3n2CCCS3)cc1 [5m, 3-(4-Iodophenyl)-6,7-dihydro-5H-[1,2,4]triazolo[3,4-b][1,3]thiazine] | 2 ± 1/– %
12 | 53.2 | 43 | 82 ± 4 | 61 ± 3 | 3 | 8 ± 1 | – | – | > 100 | – | FC(F)(F)c1ccc(-c2nnc3n2CCCS3)cc1 [5n, 3-(4-(Trifluoromethyl)phenyl)-6,7-dihydro-5H-[1,2,4]triazolo[3,4-b][1,3]thiazine] | −10 ± 2/– %
13 | – | 22 | 23 ± 4 | 27 ± 2 | 9 | 11 ± 1 | 15 | 63 ± 1 | – | > 100 | CC(C)(C)c1ccc(-c2nnc3n2CCCS3)cc1 [5o, 3-(4-(Tert-butyl)phenyl)-6,7-dihydro-5H-[1,2,4]triazolo[3,4-b][1,3]thiazine] | 15 ± 1/– %
14 | 53.8 | 42 | 71 ± 6 | 19 ± 2 | 22 | 16 ± 2 | -5 | 10 ± 1 | – | – | Cc1c(-c2nnc3n2CCCS3)cccc1[N+](=O)[O-] [5p, 3-(2-Methyl-3-nitrophenyl)-6,7-dihydro-5H-[1,2,4]triazolo[3,4-b][1,3]thiazine] | 15 ± 1/– %
15 | – | 26 | 45 ± 1 | 19 ± 1 | 20 | 11 ± 1 | 3 | 9 ± 1 | – | – | c1ccc(-c2nnc3n2CCCS3)nc1 [5q, 3-(Pyridin-2-yl)-6,7-dihydro-5H-[1,2,4]triazolo[3,4-b][1,3]thiazine] | 14 ± 1/– %
16 | – | 6 | 21 ± 3 | 25 ± 2 | 9 | 4 ± 1 | – | – | – | – | c1ccc(Cc2nnc3n2CCCS3)cc1 [5r, 3-Benzyl-6,7-dihydro-5H-[1,2,4]triazolo[3,4-b][1,3]thiazine] | 8 ± 1/– %
17 | 67.2 | 50 | 80 ± 3 | 29 ± 2 | 29 | 28 ± 3 | 9 | 4 ± 1 | – | – | Brc1ccc(-c2nnc3n2CCS3)cc1 [5s, 3-(4-Bromophenyl)-5,6-dihydrothiazolo[2,3-c][1,2,4]triazole] | 14 ± 2/– %
18 | > 100 | 40 | 75 ± 4 | 14 ± 2 | 13 | 23 ± 2 | – | – | – | – | CC(=O)Nc1ccc(Nc2ccc(-c3nnc4n3CCCS4)cc2)cc1 [5t, N-(4-((4-(6,7-dihydro-5H-[1,2,4]triazolo[3,4-b][1,3]thiazin-3-yl)phenyl)amino)phenyl)acetamide] | 31 ± 2/– %
